The assay deals with PDE IV. Description: Inhibition of PDE IV activity (method of Bauer and Schwabe, adapted to microtiter plates). Conditions: Hemmung der PDE IV-Aktivität. The assay is classed as biochemical. The source says:
Der Aktivitätstest wurde nach der Methode von Bauer und Schwabe durchgeführt, die auf Mikrotiterplatten adaptiert wurde (Naunyn-Schmiedeberg's Arch. Pharmacol. 1980, 311, 193-198). Hierbei erfolgt im ersten Schritt die PDE-Reaktion. In einem zweiten Schritt wird das entstandene 5'-Nukleotid durch eine 5'-Nukleotidase des Schlangengiftes von ophiophagus hannah (King Cobra) zum ungeladenen Nukleosid gespalten. Im dritten Schritt wird das Nukleosid auf Ionenaustauschsäulen vom verbliebenen geladenen Substrat getrennt. Die Säulen werden mit 2 ml 30 mM Ammoniumformiat (pH 6,0) direkt in Minivials eluiert, in die noch 2 ml Szintillatorflüssigkeit zur Zählung gegeben wird.
Die für die erfindungsgemäßen Verbindungen ermittelten Hemmwerte ergeben sich aus der folgenden Tabelle A, in der die Nummern der Verbindungen den Nummern der Beispiele entsprechen. Tabelle A

We go through 12 compounds from patent EP0819688A1, “4-substituted benzofuranes” (Byk Gulden Lomberg Chemische Fabrik GmbH, priority 1996, dated 1998).

For `COc1ccc(/C=C/c2ccncc2)c2cc(C3CCCC3)oc12` [Verbindung 3, (E)-2-Cyclopentyl-4-[2-(pyrid-4-yl)ethenyl]-7-methoxybenzofuran], the “PDE4 -logIC50” value was 6,77.

For the compound `COc1ccc(C(O)Cc2ccncc2)c2cc(C3CCCC3)oc12` (racemic) [Verbindung 1], the “PDE4 -logIC50” value is reported as 6,45.

`COc1ccc(C=C(C#N)c2ccncc2)c2cc(C(C)C)oc12` (mixture of isomers) [Verbindung 9, (E/Z)-4-[2-Cyano-2-(pyrid-4-yl)ethenyl]-2-isopropyl-7-methoxybenzofuran]: the “PDE4 -logIC50” value is reported as 6,64. `COc1ccc(CC(C#N)c2ccncc2)c2cc(C(C)C)oc12` (racemic) [Verbindung 12, (±)-4-[2-Cyano-2-(pyrid-4-yl)ethyl]-2-isopropyl-7-methoxybenzofuran]: the “PDE4 -logIC50” value is on record as 7,26. Regarding `COc1ccc(/C=C/c2ccncc2)c2cc(C(C)C)oc12` [Verbindung 4, (E)-2-Isopropyl-4-[2-(pyrid-4-yl)ethenyl]-7-methoxybenzofuran], the “PDE4 -logIC50” value was 7,21. Under `COc1ccc(CCc2ccncc2)c2cc(C(C)C)oc12` [Verbindung 6, 2-Isopronyl-7-methoxy-4-[2-(pyrid-4-yl)ethyl]benzofuran] stands 8,22.

As for `COc1ccc(/C=C(\C#N)c2ccncc2)c2cc(C3CCCC3)oc12` [Verbindung 7, (Z)-4-[2-Cyano-2-(pyrid-4-yl)ethenyl]-2-cyclopentyl-7-methoxy-benzofuran], the “PDE4 -logIC50” value is reported as 6,29. Consider `COc1ccc(CC(C#N)c2cccnc2)c2cc(C3CCCC3)oc12` (racemic) [Verbindung 11, (±)-4-[2-Cyano-2-(pyrid-3-yl)ethyl]-2-cyclopentyl-7-methoxybenzofuran], for which the “PDE4 -logIC50” value was 6,99. On to `COc1ccc(/C=C(\C#N)c2cccnc2)c2cc(C3CCCC3)oc12` [Verbindung 8, (Z)-4-[2-Cyano-2-(pyrid-3-yl)ethenyl]-2-cyclopentyl-7-methoxy-benzofuran], for which the “PDE4 -logIC50” value is listed as 6,51. `COc1ccc(CC(C#N)c2ccncc2)c2cc(C3CCCC3)oc12` (racemic) [Verbindung 10, (±)-4-[2-Cyano-2-(pyrid-4-yl)ethyl]-2-cyclopentyl-7-methoxybenzofuran]: the “PDE4 -logIC50” value is on record as 6,56. For the compound `COc1ccc(CCc2ccncc2)c2cc(C3CCCC3)oc12` [Verbindung 5, 2-Cyclopentyl-7-methoxy-4-[2-(pyrid-4-yl)ethyl]benzofuran], the “PDE4 -logIC50” value is 7,97. Under `COc1ccc(C(O)Cc2ccncc2)c2cc(C(C)C)oc12` (racemic) [Verbindung 2, (±)-4-[1-Hydroxy-2-(pyrid-4-yl)ethyl]-2-isopropyl-7-methoxybenzofuran] stands 6,86.
